Activity and inhibition data for four compounds are collected here from ChEMBL document CHEMBL4420078, “Sos1 inhibitors for cancer treatment” (2016).

The structures appear in SMILES notation. The source made the active and inactive calls. The rule behind the calls is not given here.

For one series, the system named is BXPC-3. In words: Effect on total AKT protein levels in overnight serum-starved human BxPC3 cells at 40 to 60 uM by Western blotting analysis. Format: ADME, cell-based. The note with it: bxpc-3, 60 µM.
For series [1], the target named is T1, Son of sevenless homolog 1 (Homo sapiens) (UniProt Q07889).
T1 sequence (whole entry): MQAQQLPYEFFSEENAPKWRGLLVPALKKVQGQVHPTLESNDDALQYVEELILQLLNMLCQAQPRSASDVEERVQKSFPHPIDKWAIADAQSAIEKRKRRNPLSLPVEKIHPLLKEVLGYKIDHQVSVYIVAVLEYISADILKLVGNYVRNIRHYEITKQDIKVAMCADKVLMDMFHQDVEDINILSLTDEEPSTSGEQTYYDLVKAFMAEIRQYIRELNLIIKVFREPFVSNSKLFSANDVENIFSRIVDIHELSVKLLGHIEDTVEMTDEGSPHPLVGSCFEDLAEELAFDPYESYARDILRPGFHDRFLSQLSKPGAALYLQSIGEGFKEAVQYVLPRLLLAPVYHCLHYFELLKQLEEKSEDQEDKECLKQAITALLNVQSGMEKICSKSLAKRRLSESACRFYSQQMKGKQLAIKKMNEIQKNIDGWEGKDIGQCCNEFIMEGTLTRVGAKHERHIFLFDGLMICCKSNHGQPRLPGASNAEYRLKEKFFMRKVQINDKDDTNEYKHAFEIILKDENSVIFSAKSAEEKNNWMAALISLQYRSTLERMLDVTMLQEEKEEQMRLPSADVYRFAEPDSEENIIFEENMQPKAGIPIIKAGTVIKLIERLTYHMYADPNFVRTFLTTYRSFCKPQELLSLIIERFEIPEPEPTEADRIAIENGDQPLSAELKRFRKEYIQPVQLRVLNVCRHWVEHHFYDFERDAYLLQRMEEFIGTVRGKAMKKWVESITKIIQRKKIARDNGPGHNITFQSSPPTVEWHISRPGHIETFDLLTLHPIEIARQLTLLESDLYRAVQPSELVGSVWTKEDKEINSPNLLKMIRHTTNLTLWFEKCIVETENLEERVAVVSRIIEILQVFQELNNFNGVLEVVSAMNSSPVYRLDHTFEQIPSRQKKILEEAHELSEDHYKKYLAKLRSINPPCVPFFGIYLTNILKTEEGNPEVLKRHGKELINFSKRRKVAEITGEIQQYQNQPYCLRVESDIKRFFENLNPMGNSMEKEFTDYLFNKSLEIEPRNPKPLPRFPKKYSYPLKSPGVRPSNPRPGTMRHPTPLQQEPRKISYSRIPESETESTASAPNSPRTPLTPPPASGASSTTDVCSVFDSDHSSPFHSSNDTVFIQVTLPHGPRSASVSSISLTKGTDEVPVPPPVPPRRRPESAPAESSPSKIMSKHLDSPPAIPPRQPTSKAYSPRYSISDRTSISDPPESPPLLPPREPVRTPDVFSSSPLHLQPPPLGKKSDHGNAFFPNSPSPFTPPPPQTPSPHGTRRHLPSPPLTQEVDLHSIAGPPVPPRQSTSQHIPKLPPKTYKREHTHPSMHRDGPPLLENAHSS
Briefly: Inhibition of N-terminal 6x-His-tagged recombinant human SOS1 catalytic domain (residues 564 to 1049 residues) expressed in Escherichia coli BL21 (DE3) assessed as disruption of allosteric SOS1/Ras Y64A mutant:GTPgammaS interaction at 20 to 200 uM by Western lot analysis.

Series [2] concerns the target T2, Son of sevenless homolog 1 (Mus musculus) (UniProt Q62245).
T2 sequence (whole entry): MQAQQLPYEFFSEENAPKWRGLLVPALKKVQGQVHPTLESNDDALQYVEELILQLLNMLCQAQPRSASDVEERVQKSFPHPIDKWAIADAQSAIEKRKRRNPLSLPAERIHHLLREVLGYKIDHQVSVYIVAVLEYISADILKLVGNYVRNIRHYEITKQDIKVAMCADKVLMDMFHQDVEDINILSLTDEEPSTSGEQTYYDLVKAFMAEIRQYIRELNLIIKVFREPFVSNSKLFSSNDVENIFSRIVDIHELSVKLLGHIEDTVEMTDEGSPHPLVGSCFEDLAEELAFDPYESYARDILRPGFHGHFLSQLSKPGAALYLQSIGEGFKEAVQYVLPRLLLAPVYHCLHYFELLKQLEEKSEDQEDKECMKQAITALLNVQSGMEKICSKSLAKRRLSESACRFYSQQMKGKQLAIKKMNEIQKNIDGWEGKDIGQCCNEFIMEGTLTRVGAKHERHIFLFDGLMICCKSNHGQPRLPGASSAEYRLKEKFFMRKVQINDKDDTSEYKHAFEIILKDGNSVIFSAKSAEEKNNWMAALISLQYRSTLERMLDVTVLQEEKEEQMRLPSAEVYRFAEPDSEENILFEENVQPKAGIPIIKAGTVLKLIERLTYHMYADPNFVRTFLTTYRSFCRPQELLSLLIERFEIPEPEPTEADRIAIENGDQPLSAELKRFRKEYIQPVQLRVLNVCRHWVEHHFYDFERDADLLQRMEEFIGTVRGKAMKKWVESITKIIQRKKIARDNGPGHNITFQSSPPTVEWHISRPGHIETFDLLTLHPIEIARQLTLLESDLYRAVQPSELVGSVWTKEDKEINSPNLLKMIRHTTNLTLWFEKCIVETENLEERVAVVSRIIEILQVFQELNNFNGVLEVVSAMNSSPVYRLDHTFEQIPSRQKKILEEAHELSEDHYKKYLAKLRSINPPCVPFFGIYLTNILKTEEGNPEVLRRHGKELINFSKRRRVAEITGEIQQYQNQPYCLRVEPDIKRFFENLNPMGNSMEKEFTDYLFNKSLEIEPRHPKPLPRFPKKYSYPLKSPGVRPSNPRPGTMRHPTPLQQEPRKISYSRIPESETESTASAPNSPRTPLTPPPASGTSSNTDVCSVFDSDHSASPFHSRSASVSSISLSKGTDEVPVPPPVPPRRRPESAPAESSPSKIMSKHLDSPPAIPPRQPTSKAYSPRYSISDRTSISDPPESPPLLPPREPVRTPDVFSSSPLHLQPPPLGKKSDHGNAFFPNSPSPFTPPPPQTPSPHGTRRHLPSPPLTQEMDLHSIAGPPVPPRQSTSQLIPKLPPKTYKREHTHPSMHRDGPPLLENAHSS
Briefly: Inhibition of SOS1 in overnight serum-starved mouse NIH/3T3 cells assessed as reduction in cell proliferation at 40 to 80 uM incubated for 3 days and measured every 24 hrs by MTS assay. On the technique in general: Formazan colour is commonly taken as a measure of viable cells.

For series [3], the target named is T2, Son of sevenless homolog 1 (Mus musculus). Briefly: Inhibition of SOS1 in overnight serum-starved and H-RasG12V transduced mouse MEF assessed as reduction in ERK1/2 phosphorylation at 10 to 40 uM pre-incubated for 2 hrs before EGF stimulation for 5 mins by Western blot analysis. Format: cell-based. For orientation: In western blotting, separated proteins are transferred to a membrane and probed.

Series [4] has the same target. Briefly: Inhibition of SOS1 in overnight serum-starved mouse NIH/3T3 cells assessed as reduction in ERK1/2 phosphorylation at 20 to 40 uM pre-incubated for 16 hrs before EGF stimulation for 5 mins by Western blot analysis.

On to `O=[N+]([O-])c1ccccc1/C=C/C=C1c2ccccc2-c2ccccc21`, for which the Activity result with BXPC-3 is “Toxic”. The inhibition entry in series [1] is “Active”. As for `O=C(O)c1cc2c3c(c1)C1C=CCC1C(c1ccccc1Cl)N3CC1CC=CC21` (stereo not given), the inhibition entry in series [2] is “Active”. For `O=C1Oc2ccccc2C(=O)/C1=C/N1C(=O)/C(=C/c2ccc([N+](=O)[O-])cc2)SC1=S`, in series [3], the inhibition entry is “Active”.

For the compound `O=C(O)c1ccccc1-c1c2ccc3cc(O)ccc3c2oc2c1ccc1cc(=O)ccc12`, the inhibition entry in series [4] is “Active”.
